Measurements reported in US9505769B2 (ASCENEURON SA, priority 2013, dated 2016).
Structures can show the parent of a compound that is named as a salt.

Target: T1, human muscarinic acetylcholine M1 receptor (Homo sapiens, UniProt P11229)
T1 construct: expressed in transfected cells; host or cells: CHO-K1
T1 sequence (P11229 1-460): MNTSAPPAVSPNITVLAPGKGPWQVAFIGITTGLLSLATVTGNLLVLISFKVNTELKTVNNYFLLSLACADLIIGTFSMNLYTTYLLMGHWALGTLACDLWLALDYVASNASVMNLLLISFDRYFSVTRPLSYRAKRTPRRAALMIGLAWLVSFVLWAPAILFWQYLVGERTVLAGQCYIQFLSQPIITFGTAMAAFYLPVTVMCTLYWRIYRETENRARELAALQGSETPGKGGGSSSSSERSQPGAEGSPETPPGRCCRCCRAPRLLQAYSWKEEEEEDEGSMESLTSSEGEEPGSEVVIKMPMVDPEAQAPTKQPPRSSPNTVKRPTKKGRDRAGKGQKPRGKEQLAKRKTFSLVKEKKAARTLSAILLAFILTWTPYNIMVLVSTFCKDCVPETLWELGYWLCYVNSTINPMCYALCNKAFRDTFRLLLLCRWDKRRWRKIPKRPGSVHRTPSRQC
Test: M1 PAM Assay (IP-One HTRF, IP1 accumulation in M1-CHO cells)
Type: cell-based
Details: not given
Procedure: Then diluted compounds (0.6% DMSO final concentration) are added together with EC20 of acetylcholine and incubated with the cells for 30 min at 37° C., 5% CO2.
CHO-K1 cells stably transfected with human muscarinic acetylcholine M1 receptor are cultured in Ham's F12 medium containing 10% heat inactivated fetal calf serum, 2 mM L-glutamine and Penicillin-Streptomycin grown in a humidified atmosphere at 5% CO2/95% air at 37° C.

Row | Compound | EC50 [µM]
1 | Cc1nc2c3c(nn2c(C)c1Cl)CN(C(=O)c1ccc(F)cc1O[C@H]1C[C@H]2CCC[C@@H](C1)N2C)C3 [Example 58, (3-chloro-2,4-dimethyl-7H-pyrrolo[3′,4′:3,4]pyrazolo[1,5-a]pyrimidin-8(9H)-yl)(4-fluoro-2-{[(3-endo)-9-methyl-9-azabicyclo[3.2.1]nonan-3-yl]oxy}phenyl)methanone] | 0.2 to 1
2 | Cc1nc2c3c(nn2c(C)c1Cl)CN(C(=O)c1ccc(F)cc1OC1CC2CC(F)C(C1)N2C)C3 (racemic) [Example 38, (3-chloro-2,4-dimethyl-7H-pyrrolo[3′,4′:3,4]pyrazolo[1,5-a]pyrimidin-8(9H)-yl)(4-fluoro-2-(((3-endo)-(6-endo)-6-fluoro-8-methyl-8-azabicyclo[3.2.1]octan-3-yl)oxy)phenyl)methanone] | < 0.2
3 | O=C(c1ccc(F)cc1O[C@H]1C[C@H]2CC[C@@H](C1)N2CC1CC1)N1Cc2nn3cc(Cl)cnc3c2C1 [Example 59, (3-chloro-7H-pyrrolo[3′,4′:3,4]pyrazolo[1,5-a]pyrimidin-8(9H)-yl)(2-{[(3-endo)-8-(cyclopropylmethyl)-8-azabicyclo[3.2.1]oct-3-yl]oxy}-4-fluorophenyl)methanone] | < 0.2
4 | CN1[C@@H]2CC[C@H]1C[C@@H](Oc1cc(F)ccc1C(=O)N1Cc3nn4cc(Cl)cnc4c3C1)C2 [Example 53, (3-chloro-7H-pyrrolo[3′,4′:3,4]pyrazolo[1,5-a]pyrimidin-8(9H)-yl)(4-fluoro-2-{[(3-endo)-8-methyl-8-azabicyclo[3.2.1]oct-3-yl]oxy}phenyl)methanone] | < 0.2

Same assay, conditions: CHO-K1 cells stably transfected with human M1 receptor; compounds added with EC20 of acetylcholine (25 nM), 30 min; intracellular IP1 by IP-One HTRF; read-out: M1 PAM EC50

Row | Compound | EC50 [µM]
5 | Cc1nc2c3c(nn2c(C)c1Cl)CN(C(=O)c1ccc(F)cc1O[C@H]1CCNC[C@@H]1O)C3 (single isomer, unassigned) [Example 70, (3-chloro-2,4-dimethyl-7H-pyrrolo[3′,4′:3,4]pyrazolo[1,5-a]pyrimidin-8(9H)-yl)(4-fluoro-2-(((3S,4S)-3-hydroxypiperidin-4-yl)oxy)phenyl)methanone hydrochloride or (3-chloro-2,4-dimethyl-7H-pyrrolo[3′,4′:3,4]pyrazolo[1,5-a]pyrimidin-8(9H)-yl)(4-fluoro-2-(((3R,4R)-3-hydroxypiperidin-4-yl)oxy)phenyl)methanone hydrochloride] | 0.2 to 1
6 | Cc1nc2c3c(nn2c(C)c1Cl)CN(C(=O)c1ccc(Br)cc1OCCN(C)C)C3 [Example 31, (4-bromo-2-(2-(dimethylamino)ethoxy)phenyl)(3-chloro-2,4-dimethyl-7H-pyrrolo[3′,4′:3,4]pyrazolo[1,5-a]pyrimidin-8(9H)-yl)methanone] | 0.2 to 1
7 | Cc1nc2c3c(nn2c(C)c1Cl)CN(C(=O)c1ccccc1C(C)N1CCN(C)CC1)C3 (stereo not drawn) [Example 7, (3-chloro-2,4-dimethyl-7H-pyrrolo[3′,4′:3,4]pyrazolo[1,5-a]pyrimidin-8(9H)-yl)(2-(1-(4-methylpiperazin-1-yl)ethyl)phenyl)methanone] | 1 to 3
8 | Cc1nc2c3c(nn2c(C)c1Cl)CN(C(=O)c1ccc(F)cc1OC1CC(N)C1)C3 (stereo not drawn) [Example 61, [2-(3-Amino-cyclobutoxy)-4-fluoro-phenyl]-(6-chloro-5,7-dimethyl-1H,3H-2,4,7a,8-tetraaza-cyclopenta[a]inden-2-yl)-methanone, hydrochloride] | < 0.2
9 | Cc1nc2c3c(nn2c(C)c1Cl)CN(C(=O)c1ccc(F)cc1OC1CC(N(C)C)C1)C3 (stereo not drawn) [Example 71, (6-Chloro-5,7-dimethyl-1H,3H-2,4,7a,8-tetraaza-cyclopenta[a]inden-2-yl)-[2-(3-dimethylamino-cyclobutoxy)-4-fluoro-phenyl]-methanone] | 0.2 to 1
10 | CN1CCC(Oc2cc(F)ccc2C(=O)N2Cc3nn4cc(Cl)cnc4c3C2)CC1 [Example 12, (3-chloro-7H-pyrrolo[3′,4′:3,4]pyrazolo[1,5-a]pyrimidin-8(9H)-yl)(4-fluoro-2-((1-methylpiperidin-4-yl)oxy)phenyl)methanone] | 0.2 to 1

Now from value to compound:

Row | EC50 [µM] | Compound
11 | 1 to 3 | Cc1nc2c3c(nn2c(C)c1Cl)CN(C(=O)c1ccccc1O[C@H]1CN(C)C[C@@H]1O)C3 (racemic) [Example 13, (anti)-(6-Chloro-5,7-dimethyl-1H,3H-2,4,7a,8-tetraaza-cyclopenta[a]inden-2-yl)-[2-(4-hydroxy-1-methyl-pyrrolidin-3-yloxy)-phenyl]-methanone]
12 | 0.2 to 1 | Cc1cncc(CCOc2cc(F)ccc2C(=O)N2Cc3nn4c(C)c(Cl)c(C)nc4c3C2)c1 [Example 67, (3-chloro-2,4-dimethyl-7H-pyrrolo[3′,4′:3,4]pyrazolo[1,5-a]pyrimidin-8(9H)-yl)(4-fluoro-2-(2-(5-methylpyridin-3-yl)ethoxy)phenyl)methanone]
13 | 0.2 to 1 | Cc1nc2c3c(nn2c(C)c1Cl)CN(C(=O)c1ccc(F)cc1O[C@H]1CNC[C@@H]1O)C3 (racemic) [Example 27, (anti)-(6-Chloro-5,7-dimethyl-1H,3H-2,4,7a,8-tetraaza-cyclopenta[a]inden-2-yl)-[4-fluoro-2-(4-hydroxy-pyrrolidin-3-yloxy)-phenyl]-methanone]
14 | 0.2 to 1 | Cc1nc2c3c(nn2c(C)c1Cl)CN(C(=O)c1ccc(F)cc1OC[C@H]1C[C@H](F)CN1)C3 [Example 55, (6-Chloro-5,7-dimethyl-1H,3H-2,4,7a,8-tetraaza-cyclopenta[a]inden-2-yl)-[4-fluoro-2-((2R,4S)-4-fluoro-pyrrolidin-2-ylmethoxy)-phenyl]-methanone]
15 | 0.2 to 1 | Cc1nc2c3c(nn2c(C)c1Cl)CN(C(=O)c1ccc(F)cc1O[C@H]1CCNC[C@H]1F)C3 (racemic) [Example 18]
16 | 0.2 to 1 | Cc1nc2c3c(nn2c(C)c1Cl)CN(C(=O)c1ccc(F)cc1OCCN1CC[C@@H](F)C1)C3 [Example 62, (6-Chloro-5,7-dimethyl-1H,3H-2,4,7a,8-tetraaza-cyclopenta[a]inden-2-yl)-{4-fluoro-2-[2-((R)-3-fluoro-pyrrolidin-1-yl)-ethoxy]-phenyl}-methanone]
17 | 1 to 3 | Cc1nc2c3c(nn2c(C)c1Cl)CN(C(=O)c1ccc(F)cc1OCC1(N)CC1)C3 [Example 68, (2-((1-aminocyclopropyl)methoxy)-4-fluorophenyl)(3-chloro-2,4-dimethyl-7H-pyrrolo[3′,4′:3,4]pyrazolo[1,5-a]pyrimidin-8(9H)-yl)methanone]
18 | 1 to 3 | Cc1nc2c3c(nn2c(C)c1Cl)CN(C(=O)c1ccc(F)cc1OC1CCC(F)(F)CC1)C3 [Example 47, (3-chloro-2,4-dimethyl-7H-pyrrolo[3′,4′:3,4]pyrazolo[1,5-a]pyrimidin-8(9H)-yl)(2-((4,4-difluorocyclohexyl)oxy)-4-fluorophenyl)methanone]
19 | 0.2 to 1 | Cc1nc2c3c(nn2c(C)c1Cl)CN(C(=O)c1ccc(F)cc1O[C@H]1CCN[C@@H](C)C1)C3 (stereo in doubt) [Example 48, (3-chloro-2,4-dimethyl-7H-pyrrolo[3′,4′:3,4]pyrazolo[1,5-a]pyrimidin-8(9H)-yl)(4-fluoro-2-((2-methylpiperidin-4-yl)oxy)phenyl)methanone hydrochloride]
20 | 0.2 to 1 | Cc1nc2c3c(nn2c(C)c1Cl)CN(C(=O)c1ccc(F)cc1O[C@@H]1CCNC1=O)C3 [Example 11, (R)-3-(2-(3-chloro-2,4-dimethyl-8,9-dihydro-7H-pyrrolo[3′,4′:3,4]pyrazolo[1,5-a]pyrimidine-8-carbonyl)-5-fluorophenoxy)pyrrolidin-2-one]
21 | 1 to 3 | COc1cncc(CCOc2cc(F)ccc2C(=O)N2Cc3nn4c(C)c(Cl)c(C)nc4c3C2)c1 [Example 72]
